# Reference: patent US6498168B2, “Muscarinic antagonists” (Schering Corporation, priority 1995, dated 2002)
# Counter-ions that a name gives are not always drawn. Like-named read-outs stand apart in the source and are kept apart here.
# Columns and labels:
# [1] = molecular target: T1, cloned human m2 muscarinic receptor (Homo sapiens, UniProt P08172); assay: Muscarinic binding activity, 3H-QNB, m2
# T1 sequence (P08172 1-466): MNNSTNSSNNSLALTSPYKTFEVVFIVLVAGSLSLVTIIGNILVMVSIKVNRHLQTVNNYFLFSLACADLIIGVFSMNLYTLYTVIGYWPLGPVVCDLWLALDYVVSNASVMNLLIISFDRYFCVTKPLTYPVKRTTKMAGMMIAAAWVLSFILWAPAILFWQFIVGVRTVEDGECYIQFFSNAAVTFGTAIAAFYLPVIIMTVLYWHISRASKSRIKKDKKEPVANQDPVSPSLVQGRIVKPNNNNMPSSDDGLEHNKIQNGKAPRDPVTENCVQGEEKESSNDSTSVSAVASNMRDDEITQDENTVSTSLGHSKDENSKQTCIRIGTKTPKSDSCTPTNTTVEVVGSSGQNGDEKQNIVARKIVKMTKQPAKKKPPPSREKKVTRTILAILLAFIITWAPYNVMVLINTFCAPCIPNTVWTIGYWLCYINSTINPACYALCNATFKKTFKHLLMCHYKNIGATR
# Description: (§1) The compound of interest is tested for its ability to inhibit binding to the cloned human m1, m2, m3, and m4 muscarinic receptor subtypes. The sources of receptors in these studies were membranes from stably transfected CHO cell lines which were expressing each of the receptor subtypes. Following growth, the cells were pelleted and subsequently homogenized using a Polytron in 50 volumes cold 10 mM Na/K phosphate buffer, pH 7.4 (Buffer B). The homgenates were centrifuged at 40,000×g for 20 minutes at 4° C. The resulting supernatants were discarded and the pellets were resuspended in Buffer B at a final concentration of 20 mg wet tissue/ml. These membranes were stored at −80° C. until utilized in the binding assays described below.
# (§2) Binding to the cloned human muscarinic receptors was performed using ^3H-quinuclidinyl benzilate (QNB) (Watson et al., 1986). Briefly, membranes (approximately 8, 20, and 14 μg of protein assay for the m1, m2, and m4 containing membranes, respectively) were incubated with ^3H-QNB (final concentration of 100-200 pM) and increasing concentrations of unlabeled drug in a final volume of 2 ml at 25° C. for 90 minutes. Non-specific binding was assayed in the presence of 1 μM atropine. The incubations were terminated by vacuum filtration over GF/B glass fiber filters using a Skatron filtration apparatus and the filters were washed with cold 10 mM Na/K phosphate butter, pH 7.4. Scintillation cocktail was added to the filters and the vials were incubated overnight. The bound radioligand was quantified in a liquid scintillation counter (50% efficiency). The resulting data were analyzed for IC50 values (i.e. the concentration of compound required to inhibit binding by 50%) using the EBDA computer program (McPherson, 1985). Affinity values (Ki) were then determined using the following formula (Cheng and Prusoff, 1973); [formula]
# (§3) To determine the degree of selectivity of a compound for binding the m2 receptor, the Ki value for m1 receptors was divided by the Ki value for m2 receptors. A higher ratio indicates a greater selectivity for binding the m2 muscarinic receptor.
# [2] = molecular target: T2, cloned human m4 muscarinic receptor (Homo sapiens, UniProt P08173); assay: Muscarinic binding activity, 3H-QNB, m4
# T2 sequence (P08173 1-479): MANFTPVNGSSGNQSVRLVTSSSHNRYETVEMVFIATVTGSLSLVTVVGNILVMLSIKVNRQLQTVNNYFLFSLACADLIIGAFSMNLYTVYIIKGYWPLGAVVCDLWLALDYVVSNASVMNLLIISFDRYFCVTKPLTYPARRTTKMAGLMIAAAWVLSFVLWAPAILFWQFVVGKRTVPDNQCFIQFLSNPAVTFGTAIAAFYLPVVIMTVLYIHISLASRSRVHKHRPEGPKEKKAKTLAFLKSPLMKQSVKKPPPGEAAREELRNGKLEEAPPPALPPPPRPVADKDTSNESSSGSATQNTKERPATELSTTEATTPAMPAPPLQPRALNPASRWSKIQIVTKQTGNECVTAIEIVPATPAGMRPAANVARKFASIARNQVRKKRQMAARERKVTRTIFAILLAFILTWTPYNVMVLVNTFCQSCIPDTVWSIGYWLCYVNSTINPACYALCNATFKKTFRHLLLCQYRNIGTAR
# Description: as §1, §2
# [3] = molecular target: T3, cloned human m1 muscarinic receptor (Homo sapiens, UniProt P11229); assay: Muscarinic binding activity, 3H-QNB, m1
# T3 sequence (P11229 1-460): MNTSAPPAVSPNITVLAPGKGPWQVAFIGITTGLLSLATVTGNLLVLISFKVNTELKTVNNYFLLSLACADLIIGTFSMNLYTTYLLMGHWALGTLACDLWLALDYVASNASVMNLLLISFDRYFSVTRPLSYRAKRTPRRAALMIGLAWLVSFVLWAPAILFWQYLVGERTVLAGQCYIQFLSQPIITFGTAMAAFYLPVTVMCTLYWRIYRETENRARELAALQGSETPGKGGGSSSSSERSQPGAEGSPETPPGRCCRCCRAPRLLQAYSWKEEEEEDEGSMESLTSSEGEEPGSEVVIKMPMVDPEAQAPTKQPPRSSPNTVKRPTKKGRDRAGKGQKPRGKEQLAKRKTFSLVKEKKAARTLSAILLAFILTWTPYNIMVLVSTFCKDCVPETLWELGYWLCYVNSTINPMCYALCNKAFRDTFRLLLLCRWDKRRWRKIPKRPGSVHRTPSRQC
# Description: as §1, §2, §3
# [4] = tested on: ACh release from striatum; format: in vivo, rat; details: for Peak ACh release as % increase over Baseline: striatum of conscious rat
# Description: Surgery: For these studies, male Sprague-Dawley Rats (250-350 g) were anesthetized with sodium pentobarbital (54 mg/kg, ip) and placed on a Kopf sterotaxic apparatus. The skull was exposed and drilled through to the dura at a point 0.2 mm anterior and 3.0 mm lateral to the bregma. At these coordinates, a guide cannula was positioned at the outer edge of the dura through the drilled opening, lowered perpendicularly to a depth of 2.5 mm, and permanently secured with dental cement to bone screws. Following the surgery, rats were given ampicillin (40 mg/kg, ip) and individually housed in modified cages. A recovery period of approximately 3 to 7 days was allowed before the microdialysis procedure was undertaken.
# Microdialysis: All of the equipment and instrumentation used to conduct in vivo microdialysis was obtained from Bioanalytical Systems, Inc. (BAS). The microdialysis procedure involved the insertion through the guide cannula of a thin, needle-like perfusable probe (CMA/12,3 mm×0.5 mm) to a depth of 3 mm in striatum beyond the end of the guide. The probe was connected beforehand with tubing to a microinjection pump (CMA-/100). Rats were collared, tethered, and, following probe insertion, were placed in a large, clear, plexiglass bowl with litter material and access to food and water. The probe was perfused at 2 μl/min with Ringer's buffer (NaCl 147 mM; KCl 3.0 mM; CaCl2 1.2 mM; MgCl2 1.0 mM) containing 5.5 mM glucose, 0.2 mM L-ascorbate, and 1 μM neostigmine bromide at pH 7.4). To achieve stable baseline readings, microdialysis was allowed to proceed for 90 minutes prior to the collection of fractions. Fractions (20 μl) were obtained at 10 minute intervals over a 3 hour period using a refrigerated collector (CMA170 or 200). Four to five baseline fractions were collected, following which the drug or combination of drugs to be tested was administered to the animal. Upon completion of the collection, each rat was autopsied to determine accuracy of probe placement.
# Acetylcholine (ACh) analysis: The concentration of ACh in collected samples of microdialysate was determined using HPLC/electrochemical detection. Samples were auto-injected (Waters 712 Refrigerated Sample Processor) onto a polymeric analytical HPLC column (BAS, MF-6150) and eluted with 50 mM Na2HPO4, pH 8.5. To prevent bacterial growth, Kathon CG reagent (0.005%) (BAS) was included in the mobile phase. Eluent from the analytical column, containing separated ACh and choline, was then immediately passed through an immobilized enzyme reactor cartridge (BAS, MF-6151) coupled to the column outlet. The reactor contained both acetylcholinesterase and choline oxidase covalently bound to a polymeric backbone. […] Data acquisition was carried out using an IBM Model 70 computer equipped with a microchannel IEEE board. Integration and quantification of peaks were accomplished using “Maxima” chromatography software (Waters Corporation). Total run time per sample was 11 minutes at a flow rate of 1 ml/min. Retention times for acetylcholine and choline were 6.5 and 7.8 minutes, respectively. To monitor and correct for possible changes in detector sensitivity during chromatography, ACh standards were included at the beginning, middle and end of each sample queue.
# Increases in ACh levels are consistent with presynaptic m2 receptor antagonism.
# [5] = tested on: ACh release from cortex; assay: Microdialysis, ACh release from cortex of conscious rat; format: in vivo
# [6] = range given for the named group of compounds, read-out: Ki, nM, m2
# [7] = range given for the named group of compounds, read-out: Ki, nM, m4
# [8] = range given for the named group of compounds, read-out: Ki, nM, m1
SMILES,"Ki [1, 6]","Ki [2, 7]","Ki [3, 8]",melting point,further results
"c1cnc(Oc2ccc(C(C3CCCCC3)N3CCN(C4CCCCC4)CC3)cc2)nc1 (single isomer, unassigned) [227(−)]",0.05 to 16.6 nM,0.33 to 36 nM,2.1 to 224 nM,,
"C=C(c1ccc([S+]([O-])c2ccc(OC)cc2)cc1)C1CCN(C2CCCCC2)CC1 (single isomer, unassigned) [Compound 300]",0.05 to 16.6 nM,0.33 to 36 nM,2.1 to 224 nM,,
COc1ccc([S+]([O-])c2ccc(C(=O)C3CCN(C4CCCCC4)CC3)cc2)cc1 (centres unmarked) [Compound 305],0.05 to 16.6 nM,0.33 to 36 nM,2.1 to 224 nM,125 °C,
COc1ccc(S(=O)(=O)c2ccc([C@H](C)N3CCN(C4CCCCC4)C[C@H]3C)cc2)cc1 [Compound 656],0.03 to 0.48 nM,,,227 to 230 °C,
O=C(O)/C=C\C(=O)O.c1ccc(Oc2ccc(C3(N4CCN(C5CCCCC5)CC4)CCSCC3)cc2)cc1,,,,137 to 139 °C,
"Nc1c2c(nc3ccccc13)CCCC2 [Tacrine, reference compound]",,,,,Peak ACh release as % increase over Baseline ([4]; Tacrine 3 mg/kg i.p. (FIG. 3)): 30 (FIG. 3) %
CC(C)C(c1ccc(Oc2ncccn2)cc1)N1CCN(C2CCCCC2)CC1 (centres unmarked) [Compound 232],,,,,Ki [1]: 0.05 to 16.6 nM; Ki [2]: 0.33 to 36 nM; Ki [3]: 2.1 to 224 nM
COc1ccc(S(=O)(=O)c2ccc([C@@H](C)N3CCN(C4CCCCC4)C[C@H]3C)cc2)cc1 [Compound 667],0.03 to 0.48 nM,,,241 to 242 °C,
"COc1ccc([S+]([O-])c2ccc(C(C#N)N3CCN(C4CCCCC4)CC3)cc2)cc1 (single isomer, unassigned) [Compound 169]",,,,,"increase in ACh release ([4]; oral administration, brain region not stated): significant increase; Peak ACh release as % increase over Baseline ([4]; 0.1 mg/kg i.p. (FIG. 2)): 10%; Peak ACh release as % increase over Baseline ([4]; 1 mg/kg i.p. (FIG. 2)): 30%; Peak ACh release as % increase over Baseline ([4]; 3 mg/kg i.p. (FIG. 2)): 125%; Peak ACh release as % increase over Baseline ([4]; 10 mg/kg i.p. (FIG. 2)): 150%; Peak ACh release as % increase over Baseline ([4]; 30 mg/kg i.p. (FIG. 2)): 270%; Peak ACh release as % increase over Baseline ([4]; Compound 169 1 mg/kg i.p. (FIG. 4)): 40 (FIG. 4) %; Peak ACh release as % increase over Baseline ([5]; 1 mg/kg i.p. (FIG. 1)): 75%; Peak ACh release as % increase over Baseline ([5]; 10 mg/kg i.p. (FIG. 1)): 400%; Peak ACh release as % increase over Baseline ([5]; 30 mg/kg i.p. (FIG. 1)): 1500%"
C=C(c1ccc([S+]([O-])c2ccc(OC)cc2)cc1)C1CCN(C2CCCCC2)CC1 (centres unmarked) [Compound 304],0.05 to 16.6 nM,0.33 to 36 nM,2.1 to 224 nM,,
COC(=O)C(c1ccc(S(=O)(=O)c2ccc(OC)cc2)cc1)N1CCN(C2CCCCC2)CC1 (centres unmarked) [Compound 214],0.05 to 16.6 nM,0.33 to 36 nM,2.1 to 224 nM,,
C=C(c1ccc(Sc2ccc(OC)cc2)cc1)C1CCN(C2CCCCC2)CC1 (as salt: hydrochloride) [Compound 302],,,,227 to 230 °C,
"C=C(c1ccc([S+]([O-])c2ccc(OC)cc2)cc1)C1CCN(C2CCCCC2)CC1 (single isomer, unassigned) [Compound 301]",,,,141 to 142 °C,
C=C(c1ccc(S(=O)(=O)c2ccc(OC)cc2)cc1)C1CCN(C2CCN(C(=O)OCC)CC2)CC1 [Compound 760],0.03 to 0.48 nM,,,,
C=C(c1ccc(Sc2ccc(OC)cc2)cc1)C1CCN(C2CCCCC2)CC1 [Compound 302],0.05 to 16.6 nM,0.33 to 36 nM,2.1 to 224 nM,,
COc1ccc([S+]([O-])c2ccc(C(C)(C#N)N3CCN(C4CCCCC4)CC3)cc2)cc1 (centres unmarked) [Compound 289],0.05 to 16.6 nM,0.33 to 36 nM,2.1 to 224 nM,,
CC1CN(C2CCCCC2)CCN1C(C)c1ccc(Oc2ncccn2)cc1 (centres unmarked) [Compound 269],0.05 to 16.6 nM,0.33 to 36 nM,2.1 to 224 nM,,
COC(=O)C(C)(c1ccc([S+]([O-])c2ccc(OC)cc2)cc1)N1CCN(C2CCCCC2)CC1 (centres unmarked) [Compound 296],0.05 to 16.6 nM,0.33 to 36 nM,2.1 to 224 nM,,
